The values below are quoted from earlier work in patent US8673945B2, “Solid pharmaceutical composition comprising amlodipine and losartan” (Hanmi Science Co., Ltd, priority 2009, dated 2014).

For `CCCCc1nc(Cl)c(CO)n1Cc1ccc(-c2ccccc2-c2nn[nH]n2)cc1` [losartan, 2-butyl-4-chloro-1-[[2′-(1H-tetrazol-5-yl)[1,1′-biphenyl]-4-yl]methyl]-1H-imidazol-5-methanol], the “reduction of Cmax of losartan after food ingestion” value is listed as “about 10%”.
